# Test results reported in US20090087443A1, “Pharmacological Adjunctive Treatment Associated with Glaucoma Filtration Surgery” (priority 2007, published 2009).
# Where “and” joins values, the source holds several entries; their conditions need not be identical. Identical values can stand only once. Entries after “also recorded” stand apart in the source; their conditions may differ. Like-named read-outs stand apart in the source and are kept apart here.
# B1: Prolactin: antagonist to at least one TGF-β isoform (protein, UniProt P01236 29-227, looked up)
# Prolactin: LPICPGGAARCQVTLRDLFDRAVVLSHYIHNLSSEMFSEFDKRYTHGRGFITKAINSCHTSSLATPEDKEQAQQMNQKDFLSLIVSILRSWNEPLYHLVTEVRGMQEAPEAILSKAVEIEEQTKRLLEGMELIVSQVHPETKENEIYPVWSGLPSLQMADEESRLSAYYNLLHCLRRDSHKIDNYLKLLKCRIIHNNNC
# Experiments:
# [1] = test system: New Zealand White rabbits; assay: Mortality/morbidity in the rabbit topical IOP study; type: in vivo; details: for Mortality (number of animals found dead or euthanized prior to study completion/number of animals in group): right eye topical 4 × daily through Day 31, to Day 33
# [2] = test system: New Zealand White rabbits; assay: Slit-lamp ophthalmic observations (McDonald Shadduck scoring) in the rabbit topical IOP study; type: in vivo; design: key to Conjunctival Congestion Score, treated right eye: 1 = A flushed, reddish color predominantly confined to the palpebral conjunctiva with some perilimbal injection but primarily confined to the lower and upper parts of the eye from the 4:00 to 7:00 and 11:00 to 1:00 positions; key to Cornea Score, treated right eye: 1 = Some loss of transparency. Only the epithelium and/or the anterior half of the stoma are involved. The underlying structures are clearly visible although some cloudiness may be readily apparent; key to Ophthalmic Observation (Slit-Lamp), treated right eye, individual animals: AN = Appeared normal; details: for Ophthalmic Observation (Slit-Lamp), treated right eye, individual animals: examination Days 5, 12, 22, 26, 33 as listed per animal (days without scored finding, until death)
# Procedure: Prior to placement on study, each animal underwent a pre-treatment ophthalmic examination (slit lamp and indirect ophthalmoscopy). Observations were scored according to the McDonald Shadduck system and recorded using a standardized data collection sheet.
# Ophthalmic examinations (slit lamp) were performed prior to the first dosing on Days 5, 12, 22, 26, and 33. Ocular findings were scored according to the McDonald Shadduck system and recorded using a standardized data collection sheet.
# [3] = test system: Human Tenon's fibroblasts; assay: TGF-β stimulated cellular levels of collagen type I, α-smooth muscle actin and tissue transglutaminase (Western blot); type: cell-based; details: TGF-β 5 ng/ml, 0.1, 1, 3, 5 or 10 μM, day 5, ratio to GAPDH
# Procedure: Methods: Human Tenon's fibroblasts were seeded in 60 mm plates in 10% FBS MEM (fetal bovine serum/Eagle's minimum essential medium) and grown until approximately 90% confluency. After the cells were starved in 0.5% FBS MEM for approximately 72 hours, the media was changed to fresh 0.5% FBS MEM. […] Cells were harvested 1, 3 or 5 days later. They were washed twice with cold 1× PBS and scraped into 1×SDS sample buffer. Lysates were assayed for protein content using the DC protein assay kit from Bio-Rad. Equal amounts of protein from each sample were electrophoresed on a 7.5% Tris-glycine SDS gel. Proteins were transferred to a PVDF membrane, blocked and probed with one or more of the following antibodies: mouse monoclonal anti-α-smooth muscle actin Clone 1A4: (Sigma Aldrich, #A2547), mouse monoclonal anti-human GAPDH (6C5) (Santa Cruz Biotechnology, Inc., #sc-32233), goat anti-human collagen α1Type I (L-19) (Santa Cruz Biotechnology, Inc., #sc-8783), or mouse monoclonal anti-transglutaminase II Ab-3 (ClonesCUB7402+TG100) (NeoMarkers, # MS-300-P). Density of each band was measured densitometrically and the ratio to GADPH calculated.
# [4] = test system: IL-1β-induced cytokine production in human corneal epithelial cells (HCECs); assay: IL-1β-stimulated cytokine production in primary human corneal epithelial cells (30-cytokine Luminex kit)
# Procedure: Primary HCECs were seeded in 24-well plates. […] Each treatment was performed in triplicate. Media were collected and used for determination of cytokine content using a 30-cytokine Luminex kit. Cell viability was determined by alamarBlue assay (LP06013).
# Median fluorescence intensity (MFI) was used to obtain the concentration of each cytokines in pg/ml based on the standard curve of each cytokine assayed by Luminex. The linear range of the standard curve for each cytokine was used for determination of cytokine concentration. Duplicate values for each sample were averaged. Data were expressed as mean±SD. Statistical analysis was performed using one-way ANOVA-Dunnett's test, and P<0.05 was considered statistically significant.
# [5] = test system: neovascularization and angiogenesis in the rat cornea; details: X. Xin et al., J. Biol. Chem. 274:9116-9121 (1999); cited from earlier work
# fibroblasts = details: cited from earlier work
# [6] = 0.1% dexamethasone, 0.05 mg/dose 4 × daily (Group A)
molecule,measurement,setting,value
Cc1ccc2c(NCC(O)(CC(C)(C)c3cc(F)cc4c3OCC4)C(F)(F)F)cccc2n1 (stereo not shown),"Day of Death (day euthanized or found dead), individual rabbits",[1],29
same,"Recorded Notes on mortality/morbidity, individual rabbits","[1]; 1 mg/g suspension, 0.05 mg/dose 4 × daily (Group D)",Found dead.
same,Mortality (number of animals found dead or euthanized prior to study completion/number of animals in group),"[1]; 1 mg/g suspension, 0.05 mg/dose",one of ten and 1/10^(6)
same,"Day of Death (day euthanized or found dead), individual rabbits","[1]; 10 mg/g suspension, 0.5 mg/dose 4 × daily (Group B)",11
same,Mortality (number of animals found dead or euthanized prior to study completion/number of animals in group),"[1]; 10 mg/g suspension, 0.5 mg/dose",one of ten and 1/10^(4)
same,"Conjunctival Congestion Score, treated right eye","[2]; 1 mg/g suspension 4 × daily, animal No. 3040, Day 22",1
same,"Ophthalmic Observation (Slit-Lamp), treated right eye, individual animals",[2]; 1 mg/g suspension 4 × daily,AN
same,Other slit-lamp finding in dosed right eye,"[2]; 1 mg/g suspension, Group D, No. 3043",subconjunctival hemorrhage
same,"Conjunctival Congestion Score, treated right eye","[2]; 5 mg/g suspension 4 × daily, animal No. 3031, Day 22",1
same,"Conjunctival Congestion Score, treated right eye","[2]; 5 mg/g suspension 4 × daily, animal No. 3035, Days 22, 26",1
same,"Conjunctival Congestion Score, treated right eye","[2]; 5 mg/g suspension 4 × daily, animal No. 3064, Day 5",1
same,"Conjunctival Congestion Score, treated right eye","[2]; 5 mg/g suspension 4 × daily, animal No. 3074, Day 26",1
same,"Ophthalmic Observation (Slit-Lamp), treated right eye, individual animals",[2]; 5 mg/g suspension 4 × daily,AN
same,"Conjunctival Congestion Score, treated right eye","[2]; 10 mg/g suspension 4 × daily, animal No. 3003, Day 12",1
same,"Conjunctival Congestion Score, treated right eye","[2]; 10 mg/g suspension 4 × daily, animal No. 3017, Days 5, 12",1
same,"Conjunctival Congestion Score, treated right eye","[2]; 10 mg/g suspension 4 × daily, animal No. 3042, Day 26",1
same,"Surface area of cornea involvement Score, treated right eye","[2]; 10 mg/g suspension 4 × daily, animal No. 3083, Day 5",1 (1 = 1-25% area of stromal cloudiness.)
same,"Cornea Score, treated right eye","[2]; 10 mg/g suspension 4 × daily, animal No. 3083, Day 5, pinpoint corneal scar",1^(2)
same,"Ophthalmic Observation (Slit-Lamp), treated right eye, individual animals",[2]; 10 mg/g suspension 4 × daily,AN
same,Other slit-lamp finding in dosed right eye,"[2]; 10 mg/g suspension, Group B, No. 3083",pinpoint corneal scar
same,Effect on TGF-β-induced cellular level of collagen type I,[3],inhibitory effect that appeared dose-related; also recorded: inhibit
same,Effect on TGF-β-induced cellular level of tissue transglutaminase,[3],inhibitory effect that appeared dose-related; also recorded: inhibit
same,Effect on TGF-β-induced cellular level of α-smooth muscle actin,[3],inhibitory effect that appeared dose-related; also recorded: inhibit
same,"Potency relative to dexamethasone for inhibition of IL-1β-stimulated production of IL-6, IL-7, TGF-α, TNF-α, VGEF, and MCP-1",[4],comparable potency
same,Potency relative to dexamethasone in inhibiting IL-1β-stimulated production of G-CSF,[4],more potent than dexamethasone
same,"Potency relative to dexamethasone in inhibiting IL-1β-stimulated production of GM-CSF, IL-8, and RANTES",[4],somewhat less potent than dexamethasone
same,Effect on IL-1β-stimulated RANTES production,"[4]; 1 nM-10 μM, IL-1β 10 ng/ml, 18 h",no significant effect
"CCCCCC=CC=C1C(=O)C=C[C@@H]1CC=CCCCC(=O)O [15-deoxy-Δ-12,14-prostaglandin J2]",Effect on neovascularization and angiogenesis in the rat cornea,[5],inhibit
"C[C@@H]1C[C@H]2[C@@H]3CCC4=CC(=O)C=C[C@]4(C)[C@@]3(F)[C@@H](O)C[C@]2(C)[C@@]1(O)C(=O)CO [dexamethasone, reference compound]",Mortality (number of animals found dead or euthanized prior to study completion/number of animals in group),"[1]; 0.1% dexamethasone (Maxidex), 0.05 mg/dose",Six of ten
same,Mortality (number of animals found dead or euthanized prior to study completion/number of animals in group),"[1]; 0.1% dexamethasone (Maxidex), 0.05 mg/dose, listed as Dexamethasone",6/10^(3)
same,"Day of Death (day euthanized or found dead), individual rabbits",[1]; [6],25 (2×) and 27 (2×) and 23 and 13
same,"Recorded Notes on mortality/morbidity, individual rabbits",[1]; [6],Euthanized due to severe profuse hemorrhagic diarrhea; also recorded: Found dead. No rigor mortis present
same,Mortality rate,[1]; dexamethasone 0.05 mg/dose 4 × daily up to 31 days,6 deaths per 10 rabbits
same,"Conjunctival Congestion Score, treated right eye","[2]; 0.1% dexamethasone 4 × daily, animal No. 3016, Day 5",1
same,"Conjunctival Congestion Score, treated right eye","[2]; 0.1% dexamethasone 4 × daily, animal No. 3081, Day 22",1
same,"Ophthalmic Observation (Slit-Lamp), treated right eye, individual animals",[2]; 0.1% dexamethasone 4 × daily,AN
B1,Effect on the chemotaxis of fibroblasts,fibroblasts,inhibit
